Measurements: US11654143B2, “Therapeutic combinations of a BTK inhibitor, a PI3K inhibitor, a JAK-2 inhibitor, and/or a BCL-2 inhibitor” (Acerta Pharma B.V., priority 2014, dated 2023)

Assays:
B cell receptor = test: whole blood anti-IgD stimulated CD69 on CD19+ B cells; type: cell-based; settings: whole blood from four healthy donors, 2 hours compound, anti-human IgD 18 hours
Protocol: Blood from four healthy donors was incubated for 2 hours with the compounds shown over a concentration range, and then stimulated with anti-human IgD [10 μg/mL] for 18 hours. The mean fluorescent intensity (MFI) of CD69 (and CD86, data not shown) on gated CD19+ B cells was measured by flow cytometry.

[1] = tested on: 80 known pharmacologic targets such as G-protein-coupled receptors, nuclear receptors, proteases, and ion channels; test: binding assays with 80 known pharmacologic targets; settings: screened at 10 μM
CLL [2] = settings: human, in vivo
Excerpt: (§1) This study is a multicenter, open-label, nonrandomized, sequential group, dose escalation study. The following dose cohorts will be evaluated:
(§2) Each cohort will be enrolled sequentially with 6 subjects per cohort. If ≤1 dose-limiting toxicity (DLT) is observed in the cohort during Cycle 1, escalation to the next cohort will proceed. Subjects may be enrolled in the next cohort if 4 of the 6 subjects enrolled in the cohort completed Cycle 1 without experiencing a DLT, while the remaining 2 subjects are completing evaluation. If ≥2 DLTs are observed during Cycle 1, dosing at that dose and higher will be suspended and the MTD will be established as the previous cohort. […] Dose escalation will end when either the MTD is achieved or at 3 dose levels above full BTK occupancy, whichever occurs first. […] Should escalation to Cohort 6 be necessary, the dose will be determined based on the aggregate data from Cohorts 1 to 5, which includes safety, efficacy, and PK/PD results. The dose for Cohort 6 will not exceed 900 mg/day.
(§3) Dose-limiting toxicity is defined as any of the following events (if not related to disease progression): (1) any Grade ≥3 non-hematologic toxicity (except alopecia) persisting despite receipt of a single course of standard outpatient symptomatic therapy (e.g., Grade 3 diarrhea that responds to a single, therapeutic dose of Imodium® would not be considered a DLT); (2) grade ≥3 prolongation of the corrected QT interval (QTc), as determined by a central ECG laboratory overread; (3) grade 4 neutropenia (absolute neutrophil count [ANC]<500/μL) lasting >7 days after discontinuation of therapy without growth factors or lasting >5 days after discontinuation of therapy while on growth factors (i.e., Grade 4 neutropenia not lasting as long as specified will not be considered a DLT), (4) grade 4 thrombocytopenia (platelet count <20,000/μL) lasting >7 days after discontinuation of therapy or requiring transfusion (i.e., Grade 4 thrombocytopenia not lasting as long as specified will not be considered a DLT), and (5) dosing delay due to toxicity for >7 consecutive days.
(§4) The study scheme is a sequential cohort escalation. Each cohort consists of six subjects. The sample size of the study is 24 to 36 subjects, depending on dose escalation into subsequent cohorts. […] The dose level for Cohort 6 will be determined based on the safety and efficacy of Cohorts 1 to 5, and will not exceed 900 mg/day. Escalation will end with either the MTD cohort or three levels above full BTK occupancy, whichever is observed first. An additional arm of the study will explore 100 mg BID dosing.
(§5) The route of administration is oral (per os, or PO). The dose regimen is once daily or twice daily, as defined by the cohort, on an empty stomach (defined as no food 2 hours before and 30 minutes after dosing).

CCL2 [3] = test: CCL2 levels in treated patients; type: in vivo, human; settings: FIG. 146
[4] = preliminary brain PK experiments, oral gavage; type: in vivo, Sprague-Dawley rats; settings: 5 or 30 mg/kg/day oral
Excerpt: Two vehicle treated rats were sacrificed on each sampling day for comparison.

[5] = tested on: expression of activation markers CD69 and CD86; test: in vivo potency: mice gavaged, BCR stimulated with IgM, CD69 and CD86 monitored by flow cytometry; settings: gavage, 3 h post-dose, versus ibrutinib, FIG. 124
Protocol: Mice were gavaged at increasing drug concentration and sacrificed at one time point (3 h post-dose). BCR is stimulated with IgM and the expression of activation markers CD69 and CD86 are monitored by flow cytometry to determine EC50's.

[6] = functional observation battery (GLP safety pharmacology); settings: rats, doses through 300 mg/kg
[7] = study of respiratory function; settings: rats, doses through 300 mg/kg
BTK [8] = target: T1, BTK (Mus musculus, UniProt P35991); test: molecular probe assay, BTK occupancy in MDSCs from tumor bearing PDA mice; type: in vivo; settings: 15 mg/kg BID, Day 8, 4 hours post dose, granulocytic and monocytic MDSC (N=5)
T1 construct: MDSCs were purified from tumor bearing PDA mice; from tissue; host or cells: granulocytic and monocytic MDSCs purified from tumour-bearing PDA mice
Excerpt: A molecular probe assay was used to calculate the percent irreversible occupancy of total BTK.

[9] = tested on: human platelet-mediated thrombosis; test: in vivo human thrombus formation in the VWF HA1 mice model; settings: human platelets preincubated with BTK inhibitor, laser-induced injury
[10] = cardiovascular function study in awake telemeterized beagle dogs; settings: male beagle dogs, single doses through 30 mg/kg
hepatocytes = test: in vitro metabolism in hepatocytes with 14C-labeled drug; type: in vitro ADME, mouse, rat, dog, rabbit, monkey, and human
CLL [11] = test: clinical study in CLL (ALC and SPD); type: in vivo, human; settings: CLL patients, FIG. 125
Excerpt: J. Med. 2013, 369, 32-42.

CLL [12] = test: clinical study of Formula (XVIII) in relapsed/refractory CLL
Excerpt: as §1, §2, §3, §4, §5

CYP3A4 = CYP3A4 (Homo sapiens, UniProt P08684); test: loss of parent drug as catalyzed by CYPs; type: in vitro ADME; settings: in vitro loss of parent drug
NSCLC (KrasLA2) tumors = test: genetic tumor model of NSCLC (KrasLA2); type: in vivo, mice; settings: 15 mg/kg
Excerpt: The model is designed to have sporadic expression in single cells of G12D mutant Kras off its own promoter triggered by spontaneous intrachromosomal recombination. Johnson, et al. Nature 2001, 410, 1111-16. While the mutant Kras protein is expressed in a few cells in all tissues, tumor development is seen only in the lung at high penetrance.

CLL [13] = test: apoptosis in treated CLL patients; type: in vivo, human; settings: FIG. 144
CXCL12 [14] = test: plasma chemokines in treated CLL patients; type: in vivo, human
EGFR = EGFR (Homo sapiens, UniProt P00533); test: EGF-induced EGFR phosphorylation in A431 cells (phosphoflow); settings: 10 μM, A431 human epidermoid cancer cell line
human platelets = test: GPVI (convulxin-induced) platelet aggregation; type: cell-based; settings: CVX-induced
Protocol: GPVI platelet aggregation was measured for Formula (XVIII) and Formula (XX-A) (ibrutinib). Blood was obtained from untreated humans, and platelets were purified from […] by centrifugation. Cells were resuspended to a final concentration of 350,000/μL in buffer containing 145 mmol/L NaCl, 10 mmol/L HEPES, 0.5 mmol/L Na2HPO4, 5 mmol/L KCl, 2 mmol/L MgCl2, 1 mmol/L CaCl2), and 0.1% glucose, at pH 7.4. Stock solutions of […] were prepared on the day of experimentation and added to platelet suspensions 5 minutes (37° C., 1200 rpm) before the induction of aggregation. Aggregation was assessed with a Chronolog Lumi-Aggregometer (model 540 VS; Chronolog, Havertown, Pa.) and permitted to proceed for 6 minutes after the addition of agonist. The results are reported as maximum percent change in light transmittance from baseline with platelet buffer used as a reference.
In FIG. 123, the results of CVX-induced (250 ng/mL) human platelet aggregation results before and 15 minutes after administration of the BTK inhibitors to 6 healthy individuals are shown.

BTK [15] = target: BTK (Homo sapiens, UniProt Q06187); test: BTK target occupancy in relapsed/refractory CLL patients; settings: at lower dosage versus ibrutinib, FIG. 131
CYP enzymes = test: nonclinical CYP interaction studies; type: in vitro ADME
CXCL12 [16] = test: CXCL12 levels in treated patients; type: in vivo, human; settings: FIG. 145
[17] = glutathione binding and depletion in vitro; type: in vitro ADME
CCL2 [18] = test: plasma chemokines in treated CLL patients; type: in vivo, human
[19] = preliminary evaluations of metabolism in plasma, bile, and urine; type: in vivo; settings: rats, dogs, and monkeys
canine B cell lymphoma = test: veterinary clinical trial in companion dogs with B cell lymphoma; type: in vivo
Protocol: Enrollment has completed for both arms.
Intra-subject dose escalation was allowed. Six of the 11 dogs that initiated at 2.5 or 5 mg/kg once daily were escalated and completed the study with dosages of 10 mg/kg twice daily. Among all the dose cohorts, 8 dogs had shrinkage of target lesions >20%; the best tumor responses were between 45-49% reduction in the sum of target lesions in two dogs. […] CR were defined as disappearance of all evidence of disease per evaluator judgment, and absence of new lesions. Vali, et al., Vet. Comp. Oncol. 2010, 8, 28-37.
Of these, 7 dogs had shrinkage of target lesions >20%, providing evidence of biological activity for the combination; four of these dogs achieved a PR. […] The initial reductions in the sum of target lesions continued to deepen during the course of therapy in 7 of the 10 dogs.

[20] = tested on: GPVI platelet aggregation; test: GPVI platelet aggregation studies; type: cell-based; settings: FIG. 122
[21] = within the tested dose range; cited from earlier work

EGFR, sequence (P00533 25-1210): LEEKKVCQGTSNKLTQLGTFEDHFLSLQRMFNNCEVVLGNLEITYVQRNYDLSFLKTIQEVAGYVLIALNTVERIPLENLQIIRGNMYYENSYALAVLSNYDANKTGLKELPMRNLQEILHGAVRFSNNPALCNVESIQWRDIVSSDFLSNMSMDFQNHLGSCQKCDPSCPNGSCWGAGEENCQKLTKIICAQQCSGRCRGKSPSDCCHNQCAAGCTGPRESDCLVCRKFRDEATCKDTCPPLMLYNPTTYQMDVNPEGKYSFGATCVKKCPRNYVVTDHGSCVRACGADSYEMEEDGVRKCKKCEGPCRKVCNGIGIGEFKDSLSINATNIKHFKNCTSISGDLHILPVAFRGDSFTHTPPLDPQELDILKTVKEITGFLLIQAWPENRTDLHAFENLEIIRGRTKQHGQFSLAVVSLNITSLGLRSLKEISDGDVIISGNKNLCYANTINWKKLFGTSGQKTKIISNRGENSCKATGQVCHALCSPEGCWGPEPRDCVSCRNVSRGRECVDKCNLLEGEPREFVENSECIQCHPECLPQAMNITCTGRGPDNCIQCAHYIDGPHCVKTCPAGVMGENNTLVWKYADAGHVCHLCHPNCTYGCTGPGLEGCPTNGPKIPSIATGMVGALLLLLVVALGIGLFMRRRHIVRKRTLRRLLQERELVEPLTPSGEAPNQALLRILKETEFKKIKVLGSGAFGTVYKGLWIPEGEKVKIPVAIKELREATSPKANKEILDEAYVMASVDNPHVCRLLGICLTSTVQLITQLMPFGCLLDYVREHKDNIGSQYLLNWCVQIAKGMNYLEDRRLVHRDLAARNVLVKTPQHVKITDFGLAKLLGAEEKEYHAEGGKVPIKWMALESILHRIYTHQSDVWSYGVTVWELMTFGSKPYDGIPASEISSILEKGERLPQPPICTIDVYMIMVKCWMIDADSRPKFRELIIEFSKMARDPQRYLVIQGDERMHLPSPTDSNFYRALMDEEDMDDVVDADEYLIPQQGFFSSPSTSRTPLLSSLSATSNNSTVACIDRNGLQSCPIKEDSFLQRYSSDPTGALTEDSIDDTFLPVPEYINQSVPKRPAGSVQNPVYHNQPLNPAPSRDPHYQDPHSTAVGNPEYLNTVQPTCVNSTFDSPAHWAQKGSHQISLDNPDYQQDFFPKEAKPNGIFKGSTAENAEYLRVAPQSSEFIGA
BTK (Homo sapiens, UniProt Q06187), sequence (Q06187 whole entry): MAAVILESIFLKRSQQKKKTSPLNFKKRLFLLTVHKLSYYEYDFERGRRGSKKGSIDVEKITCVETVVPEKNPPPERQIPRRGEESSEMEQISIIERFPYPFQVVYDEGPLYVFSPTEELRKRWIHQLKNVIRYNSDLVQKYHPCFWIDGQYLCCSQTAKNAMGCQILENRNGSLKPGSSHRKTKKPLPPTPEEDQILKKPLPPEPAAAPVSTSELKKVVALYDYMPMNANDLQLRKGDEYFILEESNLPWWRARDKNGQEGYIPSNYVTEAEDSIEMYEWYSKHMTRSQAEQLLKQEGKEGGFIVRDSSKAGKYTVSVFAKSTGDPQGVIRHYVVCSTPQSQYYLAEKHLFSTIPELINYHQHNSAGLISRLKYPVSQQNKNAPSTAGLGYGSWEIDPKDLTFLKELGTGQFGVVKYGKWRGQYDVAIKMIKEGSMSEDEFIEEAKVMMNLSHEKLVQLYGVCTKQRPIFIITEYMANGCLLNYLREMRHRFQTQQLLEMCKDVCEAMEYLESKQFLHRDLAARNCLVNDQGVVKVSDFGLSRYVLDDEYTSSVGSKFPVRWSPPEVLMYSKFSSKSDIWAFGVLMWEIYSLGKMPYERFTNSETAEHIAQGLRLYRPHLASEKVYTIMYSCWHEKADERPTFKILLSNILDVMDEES
CYP3A4, sequence (P08684 whole entry): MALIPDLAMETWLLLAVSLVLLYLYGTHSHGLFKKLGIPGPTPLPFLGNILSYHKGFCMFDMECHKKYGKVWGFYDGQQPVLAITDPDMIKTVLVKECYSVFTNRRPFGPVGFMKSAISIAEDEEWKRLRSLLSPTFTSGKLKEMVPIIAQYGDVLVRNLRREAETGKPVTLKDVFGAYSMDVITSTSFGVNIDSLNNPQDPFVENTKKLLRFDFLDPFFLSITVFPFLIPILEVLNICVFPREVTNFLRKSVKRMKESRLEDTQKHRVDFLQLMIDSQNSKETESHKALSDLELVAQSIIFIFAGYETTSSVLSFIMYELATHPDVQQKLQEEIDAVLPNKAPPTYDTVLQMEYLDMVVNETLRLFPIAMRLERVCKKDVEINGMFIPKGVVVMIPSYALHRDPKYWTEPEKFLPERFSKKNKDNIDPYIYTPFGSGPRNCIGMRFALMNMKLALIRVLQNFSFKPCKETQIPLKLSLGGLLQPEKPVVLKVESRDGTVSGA
T1 sequence (P35991 whole entry): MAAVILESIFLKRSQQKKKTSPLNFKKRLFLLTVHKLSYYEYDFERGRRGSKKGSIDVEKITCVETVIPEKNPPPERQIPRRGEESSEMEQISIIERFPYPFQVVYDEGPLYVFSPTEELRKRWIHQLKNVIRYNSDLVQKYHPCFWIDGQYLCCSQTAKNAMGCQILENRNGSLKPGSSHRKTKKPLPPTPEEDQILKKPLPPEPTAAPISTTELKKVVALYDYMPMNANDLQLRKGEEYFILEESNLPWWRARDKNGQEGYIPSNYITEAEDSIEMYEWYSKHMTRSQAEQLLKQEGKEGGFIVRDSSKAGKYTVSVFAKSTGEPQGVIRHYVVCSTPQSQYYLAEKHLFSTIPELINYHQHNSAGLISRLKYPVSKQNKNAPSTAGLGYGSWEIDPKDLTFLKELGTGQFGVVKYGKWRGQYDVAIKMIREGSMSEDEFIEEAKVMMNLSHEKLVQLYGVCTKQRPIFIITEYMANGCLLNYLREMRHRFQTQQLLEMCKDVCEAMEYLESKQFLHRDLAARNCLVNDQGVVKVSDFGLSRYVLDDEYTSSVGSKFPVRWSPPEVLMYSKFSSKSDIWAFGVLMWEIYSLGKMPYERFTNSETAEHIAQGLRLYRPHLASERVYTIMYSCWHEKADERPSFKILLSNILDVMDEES

## C=CC(=O)Nc1cccc(Nc2nc(Nc3ccc(OCCOC)cc3)ncc2F)c1 [CC-292]
B cell receptor
  EC50: 121 nM

## CC#CC(=O)N1CCC[C@H]1c1nc(-c2ccc(C(=O)Nc3ccccn3)cc2)c2c(N)nccn12 [Formula (XVIII), (S)-4-(8-amino-3-(1-(but-2-ynoyl)pyrrolidin-2-yl)imidazo[1,5-a]pyrazin-1-yl)-N-(pyridin-2-yl)benzamide]
[1]
  activity in binding assays with 80 known pharmacologic targets: significant activity only against the A3 adenosine receptor
CLL [2]
  MTD: not reached
CCL2 [3]
  CCL2 levels: decrease
[4]
  levels in the brain and CSF samples: low but detectable levels
[5]
  in vivo potency, inhibition of expression of activation markers CD69 and CD86: more potent at inhibiting expression of activation makers than ibrutinib
[6]
  neurobehavioral effects or body temperature, functional observation battery: no adverse effects
[7]
  respiratory function: no treatment-related adverse effects
BTK [8]
  irreversible occupancy of total BTK in MDSCs: Complete BTK occupancy
[9]
  effect on human platelet-mediated thrombus formation: no significant effect
[10]
  body temperature, cardiovascular, or ECG (including QT interval) parameters: no meaningful changes
hepatocytes; hepatocytes
  unique human metabolite: No unique human metabolite
hepatocytes; mouse, rat, dog, rabbit, monkey, and human hepatocytes
  metabolites in hepatocytes: two mono-oxidized metabolites and a glutathione conjugate
B cell receptor; B-cell
  EC50: 8.2 nM
CLL [11]; relative to ibrutinib (Byrd et al. 2013)
  absolute lymphocyte count (ALC): much smaller relative increase and much faster decrease
CLL [11]; versus ibrutinib
  sum of the product of greatest diameters (SPD): decreases more rapidly
CLL [12]; 100 mg BID (N = 3)
  PD: 0 (0) n (%)
  PR: 3 (100) n (%)
  PR + L: 0 (0) n (%)
CLL [12]; 100 mg QD (N = 8)
  PD: 0 (0) n (%)
  PR: 7 (88) n (%)
  PR + L: 0 (0) n (%)
CLL [12]; 175 mg QD (N = 8)
  PD: 0 (0) n (%)
  PR: 5 (63) n (%)
  PR + L: 3 (37) n (%)
CLL [12]; 250 mg QD (N = 7)
  PD: 0 (0) n (%)
  PR: 5 (71) n (%)
  PR + L: 2 (29) n (%)
CLL [12]; 400 mg QD (N = 5)
  PD: 0 (0) n (%)
  PR: 2 (40) n (%)
  PR + L: 2 (40) n (%)
CLL [12]; All Cohorts (N = 31)
  PD: 0 (0) n (%)
  PR: 22 (71) n (%)
  PR + L: 7 (23) n (%)
CLL [12]; CLL patients, present study
  treatment time at which median % change in SPD achieved the same status: 7 months
CLL [12]; Grade 1/2, All (N = 44)
  Headache (treatment-related adverse event): 7 (16) n (%)
CLL [12]; Grade 1, All (N = 44)
  Diarrhea (treatment-related adverse event): 4 (9) n (%)
  Increased tendency to bruise (treatment-related adverse event): 6 (14) n (%)
  Petechiae (treatment-related adverse event): 3 (7) n (%)
CLL [12]; human, in vivo
  grade of AEs observed: only grade 1 AEs
  lymphocytosis: A lack of lymphocytosis
CLL [12]; relapsed/refractory CLL
  dose-limiting toxicities (DLTs): No DLTs
  treatment-related serious adverse events (SAEs): No treatment-related serious adverse events
CLL [12]; to date
  progression in patients with the 17p deletion: no 17p patients have progressed
CYP3A4
  CYP responsible for metabolism: metabolized by CYP3A4
NSCLC (KrasLA2) tumors
  number of tumors: fewer overall tumors
  tumor volumes versus vehicle: significant decrease
CLL [13]
  apoptosis: increased apoptosis
CXCL12 [14]
  plasma CXCL12 levels: significant decrease
EGFR
  inhibition of in vitro EGFR phosphorylation: no inhibition
Human platelets
  inhibition of GPVI platelet aggregation: does not
BTK [15]
  BTK target occupancy: improved BTK target occupancy
CYP enzymes
  potential for clinical drug-drug interactions via CYP enzymes: very unlikely to cause clinical drug-drug interactions
CXCL12 [16]
  CXCL12 levels: decrease
[17]
  glutathione binding and depletion: binds to glutathione but does not deplete glutathione
CCL2 [18]
  plasma CCL2 levels: significant decrease
[19]
  metabolic processes in plasma, bile, and urine: oxidation, glutathione binding, and hydrolysis
Canine B cell lymphoma; Arm 1: 21 dogs, Arm 2: 10 dogs
  complete responses (CR): not observed
  dogs with shrinkage of target lesions >20%: 8 dogs
Canine B cell lymphoma; dog, in vivo
  Median time to best response: 7 days
  best tumor responses, reduction in the sum of target lesions: 45-49%

## C=CC(=O)N1CCC[C@@H](n2nc(-c3ccc(Oc4ccccc4)cc3)c3c(N)ncnc32)C1 [Formula (XX-A), reference compound]
[20]; Platelet
  IC50: 130 nM

## CC#CC(=O)N1CCC[C@H]1c1nc(-c2ccc(C(=O)Nc3ccccn3)cc2)c2c(N)nccn12 [Formula XVIII]
[20]
  IC50: 1150 nM

## C=CC(=O)Nc1cccc(Nc2nc(Nc3ccc(OCCOC)cc3)ncc2F)c1 [Formula XXVII (CC-292), N-(3-((5-fluoro-2-((4-(2-methoxyethoxy)phenyl)amino)pyrimidin-4-yl)amino)phenyl)acrylamide, reference compound]
[9]
  effect on human platelet-mediated thrombus formation: effect similar to Formula (XX-A) (ibrutinib)

## C=CC(=O)N1CCC[C@@H](n2nc(-c3ccc(Oc4ccccc4)cc3)c3c(N)ncnc32)C1 [ibrutinib]
[21]
  maximum tolerated dose (MTD): No maximum tolerated dose
B cell receptor; B-cell
  EC50: 6.1 nM
